Measured values as given in article PMC10223019, “Preclinical Evaluation of a PSMA-Targeting Homodimer with an Optimized Linker for Imaging of Prostate Cancer” (Molecules, 2023).
Where “and” joins values, the source holds several entries; their conditions need not be identical. Equal entries are not always repeated. Each block holds one molecule with its values, some of them ahead of it.

Experiments:
[1] = system: PSMA; design: method as in PMID 27279903; details: PSMA-binding ligand with different chelators; cited from earlier work
[2] = design: method as in PMID 33495926; details: co-administration of maximum dose of 2000 pmoles PSMA-11; cited from earlier work
[3] = system: PSMA expressing LS174T cells; experiment: Internalization and cell uptake assay; format: cell-based, human; details: 2 h 37 °C
Method: LS174T human colon carcinoma cells transfected with human PSMA were obtained from Dr. Sandra Heskamp (Radboud UMC, Nijmegen). Cells were cultured in RPMI-1640 media supplemented with 2 mM glutamine, 10% fetal bovine serum (FBS) and 0.3 mg/mL G418 (Geneticin, Sigma Aldrich, St. Louis, MO, USA).
Cells were seeded (1.2 × 10^6 cells/well) and cultured to confluency for 24 h prior to experiments. We prepared 10^−9 M solutions of [^111In]In-PSMA-617, [^111In]In-22, and [^111In]In-30 in internalization media (RPMI, 20 mM HEPES, 1% BSA, pH 7.4). The media were removed from each well, and they were rinsed twice with PBS at rt. 2 mL of the radioactive compound was then added to each well and incubated at 37 °C for 2 h. For the internalization assay, the media containing radioactive compound were removed, and each well was washed twice with cold PBS. A total of 1 mL of Glycine buffer (50 mM glycine, 100 mM NaCl, pH 2.8) was added immediately and incubated for 10 min at rt. The glycine wash was then collected into counting tubes (membrane-bound fraction). An extra wash was performed and collected in the same tubes. A total of 1 mL of NaOH (1 M) was then added to each tube and left for 15 min at rt. The lysate (internalized fraction) was then collected in separate counting tubes, together with one extra NaOH wash. Data were normalized to 1,000,000 cells and percentage added dose.

[4] = system: BALB/c nude mice bearing LS174T PSMA-positive tumor xenografts; experiment: Ex vivo biodistribution studies; format: in vivo
Method: Animal experiments were performed in 8–10 weeks old male BALB/c nude mice (Janvier Labs, Le Genest-Saint-Isle, France). Animals were housed in individually ventilated cages (Blue line IVC, 4 mice per cage) under nonsterile standard conditions with cage enrichment present and free access to chlorophyll-free animal chow (Sniff GmbH, Soest, Germany) and water and acclimated for 1 week before experiments. Mice were subcutaneously inoculated with 4.0 × 10^6 LS174T cells in the right flank, diluted in 100 μL of cell suspension. Seven days after tumor cell inoculation, when xenografts were approximately 0.2–0.3 cm^3, the tracers were injected intravenously via the tail vein. All experiments were approved by the institutional Animal Welfare Committee and were conducted in accordance with the guidelines of the Revised Dutch Act on Animal Experimentation (WOD).
Mice were intravenously injected with ~1 nmol of either [^111In]In-PSMA-617, [^111In]In-22 or [^111In]In-30 with molar activity of 5 MBq/nmol for ex vivo biodistribution studies. Mice (n = 4/timepoint) were euthanized by cervical dislocation at 1, 4, and 24 h p.i. A block group was included, and mice were euthanized at 4 h p.i. Organs were collected in tubes and counted in the gamma counter, where the calibration factor was determined by measuring different known activities of indium-111.

[5] = Stability in phosphate-buffered saline (PBS), radio-HPLC; format: physicochemical; details: 24 h post-incubation, 37 °C, indium-111 labeled, intact fraction
Method: [^111In]In-22 or [^111In]In-30 (~10 MBq, 20 µL) was mixed with 80 μL of PBS (0.01 M, pH 7.4) and incubated at 37 °C for up to 24 h. A sample of the PBS solution was loaded directly onto the radio-HPLC at 1, 4, and 24 h post-incubation.

[6] = Stability in mouse serum, radio-HPLC; format: in vitro ADME; details: 24 h post-incubation, 37 °C, indium-111 labeled, intact fraction
Method: [^111In]In-22 or [^111In]In-30 (~35 MBq, 70 µL) was mixed with 330 μL of mouse serum and incubated at 37 °C for up to 24 h. After 1, 4, and 24 h incubation, 50 μL of the mouse serum solution was added to a separate vial containing 50 µL of acetonitrile. The sample was centrifuged at 5000× g for 20 min. The supernatant was analyzed by radio-HPLC.

[7] = LogD7.4 by shake-flask method (PBS/n-octanol); format: physicochemical; details: LogD7.4, PBS pH 7.4/n-octanol, indium-111 labeled compound
Method: The distribution coefficients (LogD7.4 values) were determined by a shake-flask method, in which 2 μL (~0.5 MBq) of the labeling solution ([^111In]In-22 or [^111In]In-30) were added to an Eppendorf tube containing 1 mL of PBS (0.01 M, pH 7.4)/n-octanol (v/v, 1:1). After vigorous vortexing, the solution was centrifuged at 2500× g for 15 min for phase separation. Samples (3 × 10 μL) of the two phases were taken out and measured in a gamma counter. LogD7.4 values were calculated by using the following equation: LogD7.4 = log [(counts in octanol phase)/(counts in aqueous phase)] and the experiment was performed in triplicate.

[8] = 4 h p.i. block group (excess unlabeled PSMA ligand)

SMILES: O=C(O)CCC(NC(=O)NC(CCCCNC(=O)C(Cc1ccc2ccccc2c1)NC(=O)C1CCC(CNC(=O)CCC(C(=O)O)N2CCN(CC(=O)O)CCN(CC(=O)O)CC2)CC1)C(=O)O)C(=O)O (stereo not shown) [NODAGA-conjugate]
Internalization rate [1]: 48.5 ± 16.4%

SMILES: O=C(O)CCc1ccc(O)c(CN(CCN(CC(=O)O)Cc2cc(CCC(=O)NCCCCCC(=O)NCCCC[C@H](NC(=O)N[C@@H](CCC(=O)O)C(=O)O)C(=O)O)ccc2O)CC(=O)O)c1 [PSMA-11]
Decrease in kidney uptake of [177Lu]Lu-PSMA [2]: 99.5%
Decrease in salivary gland uptake of [177Lu]Lu-PSMA [2]: 89.5%
Decrease in tumor-uptake of [177Lu]Lu-PSMA [2]: 44.5%

Blood uptake ([4]; 1 h p.i., i.v. ~1 nmol): 4.84 ± 1.44 % ID/g
Bone uptake ([4]; 1 h p.i., i.v. ~1 nmol): 3.00 ± 0.53 % ID/g
Heart uptake ([4]; 1 h p.i., i.v. ~1 nmol): 2.58 ± 0.79 % ID/g
Intestines uptake ([4]; 1 h p.i., i.v. ~1 nmol): 0.87 ± 0.08 % ID/g
Kidney uptake ([4]; 1 h p.i., i.v. ~1 nmol): 138.54 ± 1.44 % ID/g
Liver uptake ([4]; 1 h p.i., i.v. ~1 nmol): 3.94 ± 0.26 % ID/g
Lung uptake ([4]; 1 h p.i., i.v. ~1 nmol): 2.81 ± 0.36 % ID/g
Muscle uptake ([4]; 1 h p.i., i.v. ~1 nmol): 1.13 ± 0.22 % ID/g
Pancreas uptake ([4]; 1 h p.i., i.v. ~1 nmol): 1.47 ± 0.33 % ID/g
Prostate uptake ([4]; 1 h p.i., i.v. ~1 nmol): 3.53 ± 2.05 % ID/g
Skin uptake ([4]; 1 h p.i., i.v. ~1 nmol): 4.44 ± 1.06 % ID/g
Spleen uptake ([4]; 1 h p.i., i.v. ~1 nmol): 3.30 ± 0.59 % ID/g
Stomach uptake ([4]; 1 h p.i., i.v. ~1 nmol): 0.47 ± 0.34 % ID/g
Tumor uptake ([4]; 1 h p.i., i.v. ~1 nmol): 4.95 ± 1.01 % ID/g
Blood uptake [4, 8]: 0.78 ± 0.04 % ID/g
Bone uptake [4, 8]: 1.27 ± 0.23 % ID/g
Heart uptake [4, 8]: 0.82 ± 0.10 % ID/g
Intestines uptake [4, 8]: 0.48 ± 0.03 % ID/g
Kidney uptake [4, 8]: 120.93 ± 4.75 % ID/g
Liver uptake [4, 8]: 1.84 ± 0.07 % ID/g
Lung uptake [4, 8]: 0.84 ± 0.07 % ID/g
Muscle uptake [4, 8]: 0.47 ± 0.08 % ID/g
Pancreas uptake [4, 8]: 0.54 ± 0.07 % ID/g
Prostate uptake [4, 8]: 0.94 ± 0.30 % ID/g
Skin uptake [4, 8]: 1.42 ± 0.18 % ID/g
Spleen uptake [4, 8]: 1.20 ± 0.14 % ID/g
Stomach uptake [4, 8]: 0.33 ± 0.12 % ID/g
Tumor uptake [4, 8]: 1.42 ± 0.14 % ID/g
Blood uptake ([4]; 4 h p.i., i.v. ~1 nmol): 1.02 ± 0.29 % ID/g
Bone uptake ([4]; 4 h p.i., i.v. ~1 nmol): 1.44 ± 0.54 % ID/g
Heart uptake ([4]; 4 h p.i., i.v. ~1 nmol): 0.96 ± 0.22 % ID/g
Intestines uptake ([4]; 4 h p.i., i.v. ~1 nmol): 0.92 ± 0.58 % ID/g
Kidney uptake ([4]; 4 h p.i., i.v. ~1 nmol): 132.89 ± 11.12 % ID/g
Liver uptake ([4]; 4 h p.i., i.v. ~1 nmol): 2.41 ± 0.35 % ID/g
Lung uptake ([4]; 4 h p.i., i.v. ~1 nmol): 0.77 ± 0.52 % ID/g
Muscle uptake ([4]; 4 h p.i., i.v. ~1 nmol): 0.64 ± 0.30 % ID/g
Pancreas uptake ([4]; 4 h p.i., i.v. ~1 nmol): 0.66 ± 0.24 % ID/g
Prostate uptake ([4]; 4 h p.i., i.v. ~1 nmol): 1.27 ± 0.69 % ID/g
Skin uptake ([4]; 4 h p.i., i.v. ~1 nmol): 1.92 ± 0.49 % ID/g
Spleen uptake ([4]; 4 h p.i., i.v. ~1 nmol): 1.40 ± 0.20 % ID/g
Stomach uptake ([4]; 4 h p.i., i.v. ~1 nmol): 0.31 ± 0.08 % ID/g
Tumor uptake ([4]; 4 h p.i., i.v. ~1 nmol): 2.94 ± 0.36 % ID/g
Tumor-to-muscle (T/M) ratio ([4]; 24 h p.i.): 15
Blood uptake ([4]; 24 h p.i., i.v. ~1 nmol): 0.09 ± 0.01 % ID/g
Bone uptake ([4]; 24 h p.i., i.v. ~1 nmol): 0.60 ± 0.04 % ID/g
Heart uptake ([4]; 24 h p.i., i.v. ~1 nmol): 0.21 ± 0.01 % ID/g
Intestines uptake ([4]; 24 h p.i., i.v. ~1 nmol): 0.19 ± 0.06 % ID/g
Kidney uptake ([4]; 24 h p.i., i.v. ~1 nmol): 26.86 ± 2.37 % ID/g
Liver uptake ([4]; 24 h p.i., i.v. ~1 nmol): 0.80 ± 0.04 % ID/g
Lung uptake ([4]; 24 h p.i., i.v. ~1 nmol): 0.28 ± 0.03 % ID/g
Muscle uptake ([4]; 24 h p.i., i.v. ~1 nmol): 0.15 ± 0.03 % ID/g
Pancreas uptake ([4]; 24 h p.i., i.v. ~1 nmol): 0.17 ± 0.00 % ID/g
Prostate uptake ([4]; 24 h p.i., i.v. ~1 nmol): 0.40 ± 0.10 % ID/g
Skin uptake ([4]; 24 h p.i., i.v. ~1 nmol): 0.77 ± 0.13 % ID/g
Spleen uptake ([4]; 24 h p.i., i.v. ~1 nmol): 0.58 ± 0.04 % ID/g
Stomach uptake ([4]; 24 h p.i., i.v. ~1 nmol): 0.11 ± 0.07 % ID/g
Tumor uptake ([4]; 24 h p.i., i.v. ~1 nmol): 1.57 ± 0.17 % ID/g
Tumor-to-muscle (T/M) ratio ([4]; at 1 and 4 h p.i.): 4–5
Stability in PBS (%) [5]: 90.8%
Stability in Mouse Serum (%) [6]: 90.1%
logD [7]: −2.44 ± 0.07
SMILES: CC(C)CC(NC(=O)C(Cc1ccccc1)NC(=O)C(CC(=O)O)NC(=O)CCCCCSC1=NNC(SCCCCCC(=O)NC(CC(=O)O)C(=O)NC(Cc2ccccc2)C(=O)NC(CC(C)C)C(O)CC(=O)NCCCCCC(=O)NCCCCC(NC(=O)NC(CCC(=O)O)C(=O)O)C(=O)O)=C2CCC(OC(=O)NCCCNC(=O)CN3CCN(CC(=O)[O-])CCN(CC(=O)[O-])CCN(CC(=O)[O-])CC3)CCCC12)C(O)CC(=O)NCCCCCC(=O)NCCCCC(NC(=O)NC(CCC(=O)O)C(=O)O)C(=O)O.[111In+3] (stereo not shown) [[^111In]In-30]
Internalized fraction ([3]; 10^-9 M, NaOH lysate): 3.51 ± 0.68 % AD
Membrane-bound uptake ([3]; 10^-9 M, glycine wash): 0.26 ± 0.09 % AD
Total uptake ([3]; 10^-9 M, normalized to 1,000,000 cells): 3.79 ± 0.74 % AD
Internalized fraction as share of total uptake (internalization) [3]: 92% and 92.6%
Membrane-bound uptake as share of total uptake [3]: 7.4%
